Test results from patent US9822118B2, “Bicyclic heteroaryl urea, thiourea, guanidine and cyanoguanidine compounds as TrkA kinase inhibitors” (Array BioPharma Inc., priority 2012, dated 2017).

Target: T1, recombinant human TrkA (Homo sapiens, UniProt P04629)
T1 construct: 6HIS tagged cytoplasmic domain from Invitrogen, Catalog No. PV3144; purchased Invitrogen PV3144
Assay: TrkA LanthaScreen Eu Kinase Binding Assay
Settings: averaged IC50; TR-FRET binding assay, 60 min at 22° C.; read-out: TrkA Enzyme IC50
Description: TrkA binding activity was determined in a TrkA LanthaScreen™ Eu Kinase Binding Assay. 5 nM His-tagged recombinant human TrkA (6HIS tagged cytoplasmic domain from Invitrogen, Catalog No. PV3144) was incubated with 4 nM Alexa-Fluor® Tracer 236 (Invitrogen Cat. No. PV5592), 2 nM biotinylated anti-His (Invitrogen Cat. No. PV6090), and 2 nM europium-labeled Streptavidin (Invitrogen Cat. No. PV5899), in buffer (25 mM MOPS, pH 7.5, 5 mM MgCl2, 0.005% Triton X-100). Three fold serial dilutions of compounds of the invention in DMSO were added to a final percentage of 2% DMSO. After 60-minute incubation at 22° C., the reaction was measured using the EnVision multimode plate reader (PerkinElmer) via TR-FRET dual wavelength detection at […]. The percent of control was calculated using a ratiometric emission factor. The IC50 values were determined by fitting a four parameter model to the percent of control data.
Table A provides averaged IC50 values for compounds of the invention when tested in the assay of Example A, where A represents an averaged IC50 value <100 nM; and B represents an averaged IC50 value from 100 to 1,000 nM.

T1 sequence (P04629 440-796 limits assumed): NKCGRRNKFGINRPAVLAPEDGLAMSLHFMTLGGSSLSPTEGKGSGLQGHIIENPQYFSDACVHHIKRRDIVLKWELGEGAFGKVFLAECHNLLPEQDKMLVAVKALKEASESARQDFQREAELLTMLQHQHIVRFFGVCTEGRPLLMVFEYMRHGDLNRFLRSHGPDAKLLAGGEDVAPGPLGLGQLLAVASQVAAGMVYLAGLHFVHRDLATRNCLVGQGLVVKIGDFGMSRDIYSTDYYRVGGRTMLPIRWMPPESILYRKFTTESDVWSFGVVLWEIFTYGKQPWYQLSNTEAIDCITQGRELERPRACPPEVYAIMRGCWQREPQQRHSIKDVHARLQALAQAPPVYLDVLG

Row | SMILES | IC50
1 | Cc1nn(-c2ccccc2)c(NC(=O)Nc2c(-c3ccccc3)nc3c(C)nccn23)c1C [Example 8, 1-(3,4-dimethyl-1-phenyl-1H-pyrazol-5-yl)-3-(8-methyl-2-phenylimidazo[1,2-a]pyrazin-3-yl)urea] | < 100 nM
2 | CCOc1nn(-c2ccccc2)c(NC(=O)Nc2c(-c3ccccc3)nc3c(F)cccn23)c1C [Example 6, 1-(3-ethoxy-4-methyl-1-phenyl-1H-pyrazol-5-yl)-3-(8-fluoro-2-phenylimidazo[1,2-a]pyridin-3-yl)urea] | 100 to 1000 nM
3 | Cc1c(OC[C@H](O)CO)nn(-c2ccccc2)c1NC(=O)Nc1c(-c2ccccc2)nc2c(C(F)(F)F)cccn12 [Example 28, (R)-1-(3-(2,3-dihydroxypropoxy)-4-methyl-1-phenyl-1H-pyrazol-5-yl)-3-(2-phenyl-8-(trifluoromethyl)imidazo[1,2-a]pyridin-3-yl)urea] | < 100 nM
4 | Cc1c(OC[C@H](O)CO)nn(-c2ccccc2)c1NC(=O)Nc1c(-c2ccccc2)nc2c(C)cccn12 [Example 10, (R)-1-(3-(2,3-dihydroxypropoxy)-4-methyl-1-phenyl-1H-pyrazol-5-yl)-3-(8-methyl-2-phenylimidazo[1,2-a]pyridin-3-yl)urea] | 100 to 1000 nM
5 | Cc1ccc(NC(=O)Nc2c(-c3ccccc3)nc3c(C)nccn23)c(-c2ccccc2)n1 [Example 9, 1-(8-methyl-2-phenylimidazo[1,2-a]pyrazin-3-yl)-3-(6-methyl-2-phenylpyridin-3-yl)urea] | 100 to 1000 nM
6 | Cc1cccn2c(NC(=O)Nc3c4c(nn3-c3ccccc3)CS(=O)(=O)C4)c(-c3ccccc3)nc12 [Example 17, 1-(5,5-dioxido-2-phenyl-4,6-dihydro-2H-thieno[3,4-c]pyrazol-3-yl)-3-(8-methyl-2-phenylimidazo[1,2-a]pyridin-3-yl)urea] | < 100 nM
7 | Cc1c(OC[C@@H](C)O)nn(-c2ccccc2)c1NC(=O)Nc1c(-c2ccccc2)nc2c(C(F)(F)F)cccn12 [Example 27, (R)-1-(3-(2-hydroxypropoxy)-4-methyl-1-phenyl-1H-pyrazol-5-yl)-3-(2-phenyl-8-(trifluoromethyl)imidazo[1,2-a]pyridin-3-yl)urea] | < 100 nM
8 | CCOc1nn(-c2ccccc2)c(NC(=O)Nc2c(-c3ccccc3)nc3c(C)nccn23)c1C [Example 2, 1-(3-ethoxy-4-methyl-1-phenyl-1H-pyrazol-5-yl)-3-(8-methyl-2-phenylimidazo[1,2-a]pyrazin-3-yl)urea] | < 100 nM
9 | COC[C@H](O)COc1nn(-c2ccccc2)c(NC(=O)Nc2c(-c3ccccc3)nc3c(C(F)(F)F)cccn23)c1C [Example 36, (S)-1-(3-(2-hydroxy-3-methoxypropoxy)-4-methyl-1-phenyl-1H-pyrazol-5-yl)-3-(2-phenyl-8-(trifluoromethyl)imidazo[1,2-a]pyridin-3-yl)urea] | < 100 nM
